This note sets out measurements from patent US8729089B2 (Gilead Sciences, Inc., priority 2006, dated 2014).

Each structure is given as a SMILES string.

Usually EC50 stands for the concentration needed to bring the measured effect to its halfway point. Broadly, the CC50 is the concentration giving 50% cytotoxicity.

Data set [1] concerns HCV replicon in human hepatoma Huh-7 cell line. As to the kind of experiment: Anti-HCV replicon assay (EC50, luciferase). Format: cell-based. The conditions noted are these: Hepatitis C virus, Huh-7, 72 h. In short, it runs like this: (§1)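 Huh-7 cells carrying an HCV replicon (6000/well) exposed to 3-fold serial compound dilutions for 3 days at 37 °C, final DMSO 0.5% where used. EC50 read as replicon luciferase luminescence after cell lysis; CC50 from CellTiter-Glo luminescence after 10 min at room temperature.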

Data set [2] can be described thus: CC50 assay (CellTiter-Glo) in Huh-7 HCV replicon cells. Format: cell-based, human. The settings on record: human, 3 days incubation, CellTiter-Glo readout. Summed up: as §1

Compound `CCOc1nc(NCc2ccc(S(N)(=O)=O)cc2)nc2ccc(-c3ccc(C(=O)NC4(C#N)CC4)cc3)nc12` [Example 143, 4-{[4-Ethoxy-6-(4-(N-(1-cyano-1-cyclopropyl)-carbamoyl)phenyl)-pyrido[3,2-d]pyrimidin-2-ylamino]-methyl}-benzenesulfonamide] gave an EC50 in data set [1] of less than 0.1 µM. The CC50 at 3 days in data set [2] fell in the range of 5 to 25 µM.

`CN1CC[C@H](C(=O)Nc2ccc(-c3ccc4nc(NCc5ccc(S(N)(=O)=O)cc5)nc(OC5CC5)c4n3)cc2)C1` [Example 176, 1-Methyl-pyrrolidine-3-carboxylic acid {4-[4-cyclopropoxy-2-(4-sulfamoyl-benzylamino)-pyrido[3,2-d]pyrimidin-6-yl]-phenyl}-amide]: the EC50 in data set [1] was less than 0.1 µM. Also, in data set [2], the CC50 at 3 days is greater than 25 µM.

In data set [1], `CCOc1nc(NCc2ccc(C(F)(F)F)c(F)c2)nc2ccc(-c3ccc(F)cc3)nc12` [Example 44, [4-Ethoxy-6-(4-fluoro-phenyl)-pyrido[3,2-d]pyrimidin-2-yl]-(3-fluoro-4-trifluoromethyl-benzyl)-amine] registered an EC50 of less than 0.1 µM. In addition, the CC50 at 3 days in data set [2] fell in the range of 5 to 25 µM.

As for `NS(=O)(=O)c1ccc(CNc2nc(OC3CC3)c3nc(-c4ccc(F)cc4)ccc3n2)cc1` [Example 234, 4-{[4-Cyclopropoxy-6-(4-fluoro-phenyl)-pyrido[3,2-d]pyrimidin-2-ylamino]-methyl}-benzenesulfonamide], the EC50 in data set [1] is less than 0.1 µM. The CC50 at 3 days in data set [2] was in the range of 5 to 25 µM.

Compound `Fc1ccc(-c2ccc3nc(NCCN4CCOCC4)nc(NCC(F)(F)F)c3n2)cc1` [Example 258, 6-(4-Fluoro-phenyl)-N2-(2-morpholin-4-yl-ethyl)-N4-(2,2,2-trifluoro-ethyl)-pyrido[3,2-d]pyrimidine-2,4-diamine] returned an EC50 in data set [1] of less than 0.1 µM. Also, the CC50 at 3 days in data set [2] was less than 5 µM.

Regarding `NS(=O)(=O)c1ccc(CNc2nc(NCC(F)(F)F)c3nc(-c4cn[nH]c4)ccc3n2)cc1` [Example 189, 4-{[6-(1H-Pyrazol-4-yl)-4-(2,2,2-trifluoro-ethylamino)-pyrido[3,2-d]pyrimidin-2-ylamino]-methyl}-benzenesulfonamide], in data set [1], the EC50 was less than 0.1 µM. The same compound displayed a CC50 at 3 days in data set [2] of 5 to 25 µM.

The compound `NC(=O)c1ccc(-c2ccc3nc(NCc4ccc(S(N)(=O)=O)cc4)nc(C4CC4)c3n2)cc1` [Example 292, 4-[4-Cyclopropyl-2-(4-sulfamoyl-benzylamino)-pyrido[3,2-d]pyrimidin-6-yl]-benzamide] showed an EC50 in data set [1] of less than 0.1 µM. In data set [2], this compound displayed a CC50 at 3 days of 5 to 25 µM.

In the case of `Nc1cc(-c2ccc3nc(NCc4ccc(S(N)(=O)=O)cc4)nc(NCC(F)(F)F)c3n2)ccn1` [Example 169, 4-{[6-(2-Amino-pyridin-4-yl)-4-(2,2,2-trifluoro-ethylamino)-pyrido[3,2-d]pyrimidin-2-ylamino]-methyl}-benzenesulfonamide], the EC50 in data set [1] was less than 0.1 µM. In data set [2], the CC50 at 3 days was greater than 25 µM.

Compound `CCNc1nc(NCc2ccc(F)cc2)nc2ccc(-c3ccc(F)cc3)nc12` [Example 30, N4-Ethyl-N2-(4-fluoro-benzyl)-6-(4-fluoro-phenyl)-pyrido[3,2-d]pyrimidine-2,4-diamine] had an EC50 in data set [1] of less than 0.1 µM. The compound also came in with a CC50 at 3 days in data set [2] of 5 to 25 µM.

`CC(C)Nc1nc(Nc2ccc(F)cc2)nc2ccc(-c3ccc(F)cc3)nc12` [Example 49, 6-(4-Fluoro-phenyl)-N4-isopropyl-N2-(4-fluoro-phenyl)-pyrido[3,2-d]pyrimidine-2,4-diamine] registered an EC50 in data set [1] of 0.25 to 2 µM. In data set [2], the CC50 at 3 days is greater than 25 µM.

Regarding `CCOc1nc(NCc2ccc(-n3cncn3)cc2)nc2ccc(-c3ccc(F)cc3)nc12` [Example 267, [4-Ethoxy-6-(4-fluoro-phenyl)-pyrido[3,2-d]pyrimidin-2-yl]-(4-[1,2,4]triazol-1-yl-benzyl)-amine], the concentration giving a half-maximal response (EC50) in data set [1] is less than 0.1 µM. The half-maximal cytotoxic concentration (CC50) at 3 days in data set [2] is greater than 25 µM.

In data set [1], `NS(=O)(=O)c1ccc(CNc2nc(NCC(F)(F)F)c3nc(-n4cncn4)ccc3n2)cc1` [Example 285, 4-{[6-[1,2,4]Triazol-1-yl-4-(2,2,2-trifluoro-ethylamino)-pyrido[3,2-d]pyrimidin-2-ylamino]-methyl}-benzenesulfonamide] returned an EC50 of less than 0.1 µM. In addition, the CC50 at 3 days in data set [2] was greater than 25 µM.

In data set [1], `CN1CC[C@H](C(=O)Nc2ccc(-c3ccc4nc(NCc5ccc(S(N)(=O)=O)cc5)nc(NCC(F)(F)F)c4n3)cc2)C1` [Example 178, 1-Methyl-pyrrolidine-3-carboxylic acid {4-[2-(4-sulfamoyl-benzylamino)-4-(2,2,2-trifluoro-ethylamino)-pyrido[3,2-d]pyrimidin-6-yl]-phenyl}-amide] came in with an EC50 of less than 0.1 µM. In data set [2], this compound had a CC50 at 3 days of 5 to 25 µM.

As for `CCOc1nc(NCc2ccc(F)cc2Cl)nc2ccc(-c3ccc(F)cc3)nc12` [Example 43, (2-Chloro-4-fluoro-benzyl)-[4-ethoxy-6-(4-fluoro-phenyl)-pyrido[3,2-d]pyrimidin-2-yl]-amine], in data set [1], the EC50 was less than 0.1 µM. In data set [2], this compound returned a CC50 at 3 days greater than 25 µM.

The compound `CN1CCN(c2ccc(CNc3nc(NCC(F)(F)F)c4nc(-c5ccc(F)cc5)ccc4n3)cc2)CC1` [Example 240, 6-(4-Fluoro-phenyl)-N2-[4-(4-methyl-piperazin-1-yl)-benzyl]-N4-(2,2,2-trifluoro-ethyl)-pyrido[3,2-d]pyrimidine-2,4-diamine] displayed an EC50 in data set [1] of less than 0.1 µM. In data set [2], this compound showed a CC50 at 3 days of less than 5 µM.

`CCOc1nc(NCc2ccc(S(N)(=O)=O)cc2)nc2ccc(-c3ccc(NC(=O)C4(O)CC4)cc3)nc12` [Example 136, 4-{[4-Ethoxy-6-(4-((1-hydroxy-1-cyclopropyl)-carboxamido)-phenyl)-pyrido[3,2-d]pyrimidin-2-ylamino]-methyl}-benzenesulfonamide]: the EC50 in data set [1] is less than 0.1 µM. In data set [2], this compound returned a CC50 at 3 days of 5 to 25 µM.

Take `CCOc1nc(NCc2ccc(C(=O)N(C)C)cc2)nc2ccc(-c3ccc(F)cc3)nc12` [Example 262, 4-{[4-Ethoxy-6-(4-fluoro-phenyl)-pyrido[3,2-d]pyrimidin-2-ylamino]-methyl}-N,N-dimethyl-benzamide]: in data set [1], the EC50 was less than 0.1 µM. In addition, the CC50 at 3 days in data set [2] is greater than 25 µM.

Turning to `N#Cc1cc(-c2ccc3nc(NCc4ccc(S(N)(=O)=O)cc4)nc(NCC(F)(F)F)c3n2)ccn1` [Example 173, 4-{[6-(2-Cyano-pyridin-4-yl)-4-(2,2,2-trifluoro-ethylamino)-pyrido[3,2-d]pyrimidin-2-ylamino]-methyl}-benzenesulfonamide], in data set [1], the EC50 is less than 0.1 µM. In data set [2], this compound registered a CC50 at 3 days greater than 25 µM.

Take `O=C(Nc1ccc(-c2ccc3nc(NCc4ccc(F)cc4)nc(NCC(F)(F)F)c3n2)cc1)C1(O)CC1` [Example 278, 1-Hydroxy-cyclopropanecarboxylic acid {4-[2-(4-fluoro-benzylamino)-4-(2,2,2-trifluoro-ethylamino)-pyrido[3,2-d]pyrimidin-6-yl]-phenyl}-amide]: the concentration giving a half-maximal response (EC50) in data set [1] is less than 0.1 µM. This compound also displayed a CC50 at 3 days in data set [2] of 5 to 25 µM.

The compound `NS(=O)(=O)c1ccc(CNc2nc(NCC(F)(F)F)c3nc(-c4ccc(Cl)cc4)ccc3n2)cc1` [Example 192, 4-{[6-(4-Chloro-phenyl)-4-(2,2,2-trifluoro-ethylamino)-pyrido[3,2-d]pyrimidin-2-ylamino]-methyl}-benzenesulfonamide] came in with an EC50 in data set [1] of less than 0.1 µM. For the same compound, in data set [2], the CC50 at 3 days fell in the range of 5 to 25 µM.

For `CCOc1nc(NCc2ccc(S(N)(=O)=O)cc2)nc2ccc(-c3cccc(NS(=O)(=O)N(C)C)c3)nc12` [Example 132], the EC50 in data set [1] is less than 0.1 µM. For the same compound, the CC50 at 3 days in data set [2] is less than 5 µM.

In the case of `CS(=O)(=O)CCNc1nc(NCc2ccc(F)cc2)nc2ccc(-c3ccc(C(N)=O)cc3)nc12` [Example 274, 4-[2-(4-Fluoro-benzylamino)-4-(2-methanesulfonyl-ethylamino)-pyrido[3,2-d]pyrimidin-6-yl]-benzamide], in data set [1], the half-maximal effective concentration (EC50) is less than 0.1 µM. The CC50 at 3 days in data set [2] was less than 5 µM.

The compound `CS(=O)(=O)CCNc1nc(NCc2ccc(S(N)(=O)=O)cc2)nc2ccc(-c3ccc(F)c(NS(=O)(=O)C4CC4)c3)nc12` [Example 164, 4-{[4-(2-Methanesulfonylethyl)-amino-6-(4-(3-cyclopropanesulfonamido-4-fluoro)-phenyl)-pyrido[3,2-d]pyrimidin-2-ylamino]-methyl}-benzenesulfonamide] returned an EC50 in data set [1] of 0.1 to 0.25 µM. The compound further displayed a cytotoxic concentration (CC50) at 3 days in data set [2] greater than 25 µM.

`NS(=O)(=O)c1ccc(CNc2nc(OC3CCCC3)c3nc(-c4ccc(F)cc4)ccc3n2)cc1` [Example 110, 4-{[4-Cyclopentyloxy-6-(4-fluoro-phenyl)-pyrido[3,2-d]pyrimidin-2-ylamino]-methyl}-benzenesulfonamide]: the EC50 in data set [1] is less than 0.1 µM. Further, the CC50 at 3 days in data set [2] lay in the range of 5 to 25 µM.

Turning to `N#CC1(NC(=O)c2ccc(-c3ccc4nc(NCc5ccc(S(N)(=O)=O)cc5)nc(NCC(F)(F)F)c4n3)cc2)CC1` [Example 159, 4-{[4-(2,2,2-Trifluoroethyl)-amino-6-(4-(N-(1-cyano-1-cyclopropyl)-carbamoyl)phenyl)-pyrido[3,2-d]pyrimidin-2-ylamino]-methyl}-benzenesulfonamide], the EC50 in data set [1] is less than 0.1 µM. In data set [2], this compound returned a half-maximal cytotoxic concentration (CC50) at 3 days greater than 25 µM.

In turn, `CC(C)Nc1nc(NCc2ccccn2)nc2ccc(-c3ccc(F)cc3)nc12` [Example 53, 6-(4-Fluoro-phenyl)-N4-isopropyl-N2-pyridin-2-ylmethyl-pyrido[3,2-d]pyrimidine-2,4-diamine] displayed an EC50 in data set [1] of 0.1 to 0.25 µM. In data set [2], this compound came in with a CC50 at 3 days of 5 to 25 µM.

`CCOc1nc(NCc2ccc(F)cc2)nc2ccc(-c3ccc(NC(=O)N4CCCC4)cc3)nc12` [Example 73, Pyrrolidine-1-carboxylic acid {4-[4-ethoxy-2-(4-fluoro-benzylamino)-pyrido[3,2-d]pyrimidin-6-yl]-phenyl}-amide] displayed a concentration giving a half-maximal response (EC50) in data set [1] of less than 0.1 µM. Besides, the CC50 at 3 days in data set [2] was 5 to 25 µM.
